Calls of active or inactive are those of the source.
Key:
Type in all cases: functional
[1] = target: Ribosomal protein S6 kinase alpha-3 (Homo sapiens, UniProt P51812);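 note: measured within a kinome-wide profiling panel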
[2] = target: Serine/threonine-protein kinase PLK4 (Homo sapiens, UniProt O00444);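 note: PLK4 measured as one member of a kinome-wide kinase profiling panel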
[3] = target: Calcium/calmodulin-dependent protein kinase type II subunit gamma (Homo sapiens, UniProt Q13555)
[4] = target: Calcium/calmodulin-dependent protein kinase type II subunit delta (Homo sapiens, UniProt Q13557)
Chain of Calcium/calmodulin-dependent protein kinase type II subunit delta (Q13557 whole entry, canonical isoform): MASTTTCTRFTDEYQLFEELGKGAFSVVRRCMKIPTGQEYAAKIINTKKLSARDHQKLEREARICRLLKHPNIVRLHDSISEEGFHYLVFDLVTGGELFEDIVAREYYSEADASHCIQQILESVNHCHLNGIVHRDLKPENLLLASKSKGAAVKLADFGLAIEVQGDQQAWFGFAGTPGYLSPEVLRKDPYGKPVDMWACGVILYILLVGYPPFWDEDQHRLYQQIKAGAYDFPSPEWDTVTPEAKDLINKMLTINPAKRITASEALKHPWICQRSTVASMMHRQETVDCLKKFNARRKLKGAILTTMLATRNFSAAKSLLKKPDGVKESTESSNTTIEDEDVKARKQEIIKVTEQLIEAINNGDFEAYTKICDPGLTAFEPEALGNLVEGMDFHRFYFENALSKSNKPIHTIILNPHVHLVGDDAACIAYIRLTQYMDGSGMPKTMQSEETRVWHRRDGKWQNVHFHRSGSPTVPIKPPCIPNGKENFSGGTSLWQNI

[5] = target: Casein kinase I isoform alpha (Homo sapiens, UniProt P48729)
[6] = target: Casein kinase I isoform gamma-1 (Homo sapiens, UniProt Q9HCP0);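 note: measured as the CSNK1G1 member of a kinome profiling panel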
Chain of Casein kinase I isoform gamma-1 (Q9HCP0 whole entry, canonical isoform): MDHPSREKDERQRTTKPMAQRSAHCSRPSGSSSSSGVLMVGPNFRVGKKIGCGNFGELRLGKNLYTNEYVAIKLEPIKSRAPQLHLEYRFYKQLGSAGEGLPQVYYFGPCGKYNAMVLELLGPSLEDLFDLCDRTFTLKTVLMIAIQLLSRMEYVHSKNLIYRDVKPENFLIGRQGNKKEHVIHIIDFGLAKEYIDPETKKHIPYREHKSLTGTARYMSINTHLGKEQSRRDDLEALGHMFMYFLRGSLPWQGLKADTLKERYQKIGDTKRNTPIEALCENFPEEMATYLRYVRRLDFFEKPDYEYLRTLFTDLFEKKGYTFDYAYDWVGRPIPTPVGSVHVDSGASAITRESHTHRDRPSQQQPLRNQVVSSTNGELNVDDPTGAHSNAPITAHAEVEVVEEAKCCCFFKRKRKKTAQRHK

[7] = target: Mitogen-activated protein kinase 9 (Homo sapiens, UniProt P45984);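 note: value from a kinome panel profiling assay, MAPK9 panel entry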
[8] = target: Testis-specific serine/threonine-protein kinase 1 (Homo sapiens, UniProt Q9BXA7)
[9] = target: MAP/microtubule affinity-regulating kinase 3 (Homo sapiens, UniProt P27448);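 note: MARK3 affinity measured as one member of a kinome panel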
Insulin receptor = Insulin receptor (Homo sapiens, UniProt P06213);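 note: insulin receptor kinase tested as one member of a kinome-wide kinase panel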
[10] = target: Protein kinase C gamma type (Homo sapiens, UniProt P05129)
[11] = target: Glycogen synthase kinase-3 alpha (Homo sapiens, UniProt P49840);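 note: GSK3A result taken from a broad kinome-wide kinase panel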
[12] = target: Dual specificity tyrosine-phosphorylation-regulated kinase 3 (Homo sapiens, UniProt O43781);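 note: measured as one member of a broad kinase panel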
[13] = target: STE20-like serine/threonine-protein kinase (Homo sapiens, UniProt Q9H2G2)
Chain of STE20-like serine/threonine-protein kinase (Q9H2G2 whole entry): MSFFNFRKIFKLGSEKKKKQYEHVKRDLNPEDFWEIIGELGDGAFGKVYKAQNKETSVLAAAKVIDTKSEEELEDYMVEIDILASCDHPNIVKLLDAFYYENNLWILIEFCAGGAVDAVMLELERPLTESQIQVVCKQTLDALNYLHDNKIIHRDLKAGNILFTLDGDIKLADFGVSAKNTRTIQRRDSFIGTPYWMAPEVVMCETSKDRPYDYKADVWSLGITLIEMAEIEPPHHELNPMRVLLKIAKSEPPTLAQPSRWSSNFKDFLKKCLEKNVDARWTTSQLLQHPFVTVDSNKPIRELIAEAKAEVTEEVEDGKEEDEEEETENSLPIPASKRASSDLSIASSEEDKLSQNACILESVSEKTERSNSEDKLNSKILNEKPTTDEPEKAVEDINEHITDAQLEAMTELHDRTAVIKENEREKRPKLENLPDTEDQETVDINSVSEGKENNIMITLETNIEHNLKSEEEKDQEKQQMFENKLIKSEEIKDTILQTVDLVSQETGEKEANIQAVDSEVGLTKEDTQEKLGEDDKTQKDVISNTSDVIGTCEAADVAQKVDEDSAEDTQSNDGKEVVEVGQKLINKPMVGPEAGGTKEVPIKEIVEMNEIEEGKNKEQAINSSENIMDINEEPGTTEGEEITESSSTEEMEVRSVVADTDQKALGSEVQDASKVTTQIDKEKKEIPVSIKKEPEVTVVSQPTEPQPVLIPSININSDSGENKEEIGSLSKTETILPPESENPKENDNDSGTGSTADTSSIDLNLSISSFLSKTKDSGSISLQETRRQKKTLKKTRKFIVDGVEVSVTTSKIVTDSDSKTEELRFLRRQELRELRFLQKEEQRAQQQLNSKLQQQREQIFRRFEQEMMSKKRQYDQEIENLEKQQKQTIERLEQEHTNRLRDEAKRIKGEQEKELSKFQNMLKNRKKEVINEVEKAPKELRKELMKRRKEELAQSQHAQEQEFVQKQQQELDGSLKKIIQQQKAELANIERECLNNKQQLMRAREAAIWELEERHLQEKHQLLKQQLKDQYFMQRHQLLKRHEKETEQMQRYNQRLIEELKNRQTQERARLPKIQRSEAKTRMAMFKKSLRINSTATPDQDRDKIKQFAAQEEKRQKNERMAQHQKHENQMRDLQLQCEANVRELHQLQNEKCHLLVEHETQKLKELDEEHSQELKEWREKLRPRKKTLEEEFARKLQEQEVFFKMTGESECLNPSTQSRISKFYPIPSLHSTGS

[14] = target: Fibroblast growth factor receptor 3 (Homo sapiens, UniProt P22607)
Chain of Fibroblast growth factor receptor 3 (P22607 whole entry): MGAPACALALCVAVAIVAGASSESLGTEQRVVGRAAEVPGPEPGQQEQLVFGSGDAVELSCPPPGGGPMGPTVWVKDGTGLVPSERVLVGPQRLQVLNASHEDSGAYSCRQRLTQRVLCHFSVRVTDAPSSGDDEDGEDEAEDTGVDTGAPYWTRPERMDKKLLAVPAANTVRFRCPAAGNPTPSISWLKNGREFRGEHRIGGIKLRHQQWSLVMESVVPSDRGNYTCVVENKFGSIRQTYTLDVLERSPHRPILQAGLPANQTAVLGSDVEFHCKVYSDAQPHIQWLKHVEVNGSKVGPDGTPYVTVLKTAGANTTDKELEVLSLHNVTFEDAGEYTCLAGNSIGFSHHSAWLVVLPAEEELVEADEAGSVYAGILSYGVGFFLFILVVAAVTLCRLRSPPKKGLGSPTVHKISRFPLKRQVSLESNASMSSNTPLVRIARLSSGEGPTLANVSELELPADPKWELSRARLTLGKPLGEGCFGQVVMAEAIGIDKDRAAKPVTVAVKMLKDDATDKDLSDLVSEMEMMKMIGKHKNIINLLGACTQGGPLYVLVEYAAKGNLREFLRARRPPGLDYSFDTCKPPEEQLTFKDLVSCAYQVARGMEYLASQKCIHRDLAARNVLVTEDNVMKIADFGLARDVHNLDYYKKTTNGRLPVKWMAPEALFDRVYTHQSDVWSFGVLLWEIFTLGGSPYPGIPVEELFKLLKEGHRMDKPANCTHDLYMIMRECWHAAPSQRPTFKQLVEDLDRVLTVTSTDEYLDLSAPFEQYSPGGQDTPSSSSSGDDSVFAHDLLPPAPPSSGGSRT

[15] = target: Serine/threonine-protein kinase PLK1 (Homo sapiens, UniProt P53350);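 note: PLK1 measured as one member of a kinome-wide profiling panel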
Chain of Serine/threonine-protein kinase PLK1 (P53350 whole entry): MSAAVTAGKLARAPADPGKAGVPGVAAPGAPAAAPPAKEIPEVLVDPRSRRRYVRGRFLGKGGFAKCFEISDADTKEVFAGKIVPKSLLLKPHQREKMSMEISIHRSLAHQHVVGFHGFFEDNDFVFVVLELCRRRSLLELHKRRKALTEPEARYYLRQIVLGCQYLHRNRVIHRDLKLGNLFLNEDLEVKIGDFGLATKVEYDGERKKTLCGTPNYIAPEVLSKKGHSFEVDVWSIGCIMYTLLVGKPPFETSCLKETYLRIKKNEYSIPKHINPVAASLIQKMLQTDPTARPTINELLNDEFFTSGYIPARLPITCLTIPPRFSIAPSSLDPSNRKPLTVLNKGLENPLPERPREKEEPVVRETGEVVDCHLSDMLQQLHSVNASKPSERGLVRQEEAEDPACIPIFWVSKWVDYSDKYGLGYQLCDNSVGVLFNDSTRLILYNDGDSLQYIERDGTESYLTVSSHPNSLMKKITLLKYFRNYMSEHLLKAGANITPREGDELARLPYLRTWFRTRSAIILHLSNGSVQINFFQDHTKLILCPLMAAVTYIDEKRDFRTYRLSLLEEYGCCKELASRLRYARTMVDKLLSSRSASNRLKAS

[16] = target: BDNF/NT-3 growth factors receptor (Homo sapiens, UniProt Q16620);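 note: NTRK2 measured as one member of a broad kinome-wide kinase profiling panel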
Chain of BDNF/NT-3 growth factors receptor (Q16620 whole entry): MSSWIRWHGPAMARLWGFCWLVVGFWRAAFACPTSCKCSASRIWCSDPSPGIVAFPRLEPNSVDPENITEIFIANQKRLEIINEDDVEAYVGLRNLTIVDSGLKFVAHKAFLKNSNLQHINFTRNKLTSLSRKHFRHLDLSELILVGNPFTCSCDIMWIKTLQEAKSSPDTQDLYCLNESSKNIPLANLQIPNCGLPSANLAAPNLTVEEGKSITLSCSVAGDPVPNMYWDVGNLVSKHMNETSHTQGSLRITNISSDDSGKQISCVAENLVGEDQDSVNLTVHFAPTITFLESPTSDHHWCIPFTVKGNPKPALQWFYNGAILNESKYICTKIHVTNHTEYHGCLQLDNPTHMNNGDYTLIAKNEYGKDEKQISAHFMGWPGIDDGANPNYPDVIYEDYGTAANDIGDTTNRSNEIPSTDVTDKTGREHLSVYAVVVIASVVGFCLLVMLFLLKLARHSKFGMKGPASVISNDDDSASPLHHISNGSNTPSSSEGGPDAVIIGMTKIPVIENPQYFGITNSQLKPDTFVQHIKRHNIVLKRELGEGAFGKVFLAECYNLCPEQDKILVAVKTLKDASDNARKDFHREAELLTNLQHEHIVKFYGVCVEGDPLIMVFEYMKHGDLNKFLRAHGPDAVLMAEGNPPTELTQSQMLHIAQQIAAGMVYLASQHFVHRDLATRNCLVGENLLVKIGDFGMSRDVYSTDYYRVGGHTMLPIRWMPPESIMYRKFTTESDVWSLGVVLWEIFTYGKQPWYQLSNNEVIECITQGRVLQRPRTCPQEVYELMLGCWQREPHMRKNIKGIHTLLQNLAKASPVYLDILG

[17] = target: T1, Apoptotic protease-activating factor 1 (Homo sapiens, UniProt O14727)
T1 sequence (O14727 whole entry): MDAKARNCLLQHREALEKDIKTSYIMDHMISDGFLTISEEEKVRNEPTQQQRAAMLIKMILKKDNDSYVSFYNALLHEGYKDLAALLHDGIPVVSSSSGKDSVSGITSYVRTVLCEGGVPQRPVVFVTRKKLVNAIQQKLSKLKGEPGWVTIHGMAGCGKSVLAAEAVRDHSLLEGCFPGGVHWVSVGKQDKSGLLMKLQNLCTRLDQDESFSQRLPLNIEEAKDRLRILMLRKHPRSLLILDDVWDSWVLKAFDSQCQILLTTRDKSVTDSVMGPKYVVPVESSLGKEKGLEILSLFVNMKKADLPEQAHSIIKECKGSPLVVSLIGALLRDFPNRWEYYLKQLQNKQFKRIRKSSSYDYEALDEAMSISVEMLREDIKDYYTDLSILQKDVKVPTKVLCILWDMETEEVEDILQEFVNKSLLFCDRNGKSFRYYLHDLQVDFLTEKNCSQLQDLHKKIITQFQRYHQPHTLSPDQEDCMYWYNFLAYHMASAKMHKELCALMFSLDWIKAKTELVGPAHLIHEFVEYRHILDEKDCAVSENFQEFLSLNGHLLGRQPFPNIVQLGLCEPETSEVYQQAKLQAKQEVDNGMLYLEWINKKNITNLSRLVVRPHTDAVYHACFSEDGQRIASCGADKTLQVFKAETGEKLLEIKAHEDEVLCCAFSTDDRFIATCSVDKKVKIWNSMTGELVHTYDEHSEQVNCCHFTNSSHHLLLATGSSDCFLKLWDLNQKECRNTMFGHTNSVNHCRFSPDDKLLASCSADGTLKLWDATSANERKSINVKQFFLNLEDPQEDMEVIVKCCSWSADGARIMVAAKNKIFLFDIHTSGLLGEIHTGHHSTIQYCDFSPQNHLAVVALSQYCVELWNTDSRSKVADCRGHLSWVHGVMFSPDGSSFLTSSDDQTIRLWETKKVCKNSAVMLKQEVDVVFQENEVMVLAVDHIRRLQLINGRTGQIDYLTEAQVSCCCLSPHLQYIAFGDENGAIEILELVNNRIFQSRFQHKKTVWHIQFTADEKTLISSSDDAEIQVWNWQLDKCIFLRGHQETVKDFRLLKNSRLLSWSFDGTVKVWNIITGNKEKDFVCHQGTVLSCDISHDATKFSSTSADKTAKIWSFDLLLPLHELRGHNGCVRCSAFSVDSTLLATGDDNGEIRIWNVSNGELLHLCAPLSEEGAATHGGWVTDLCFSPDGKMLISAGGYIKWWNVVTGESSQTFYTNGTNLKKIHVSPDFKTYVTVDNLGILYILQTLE

Chain of Calcium/calmodulin-dependent protein kinase type II subunit gamma (Q13555 whole entry): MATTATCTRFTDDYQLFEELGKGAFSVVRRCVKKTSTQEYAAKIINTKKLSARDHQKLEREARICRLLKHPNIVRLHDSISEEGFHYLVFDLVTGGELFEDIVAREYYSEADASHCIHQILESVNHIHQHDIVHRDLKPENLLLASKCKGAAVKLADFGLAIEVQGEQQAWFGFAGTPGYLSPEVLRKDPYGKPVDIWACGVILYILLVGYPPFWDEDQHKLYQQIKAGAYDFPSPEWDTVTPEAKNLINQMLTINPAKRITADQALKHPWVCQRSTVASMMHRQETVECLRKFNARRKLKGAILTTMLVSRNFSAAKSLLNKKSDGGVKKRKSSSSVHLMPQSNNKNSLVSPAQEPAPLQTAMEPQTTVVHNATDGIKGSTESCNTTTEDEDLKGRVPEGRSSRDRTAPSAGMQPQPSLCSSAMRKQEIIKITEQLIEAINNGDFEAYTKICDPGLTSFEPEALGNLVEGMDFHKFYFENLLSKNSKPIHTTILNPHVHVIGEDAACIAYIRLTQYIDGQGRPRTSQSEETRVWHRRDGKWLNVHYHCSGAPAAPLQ

| SMILES | Ki [1] | Ki [2] | Ki [3] | Ki [4] | Ki [5] | Ki [6] | Ki [7] | Ki [8] | Ki [9] | Ki (Insulin receptor) | Ki [10] | Ki [11] | Ki [12] | Ki [13] | Ki [14] | Ki [15] | Ki [16] | IC50 [17] |
| --- | --- | --- | --- | --- | --- | --- | --- | --- | --- | --- | --- | --- | --- | --- | --- | --- | --- | --- |
| Cn1cncc1C(OCc1c(-c2ccc(OC(F)(F)F)cc2)cc(C#N)c(=O)n1C)c1ccc(C#N)cc1 (stereo not drawn) | > 7.94 µM (inactive) | > 3.98 µM (inactive) | > 6.31 µM (inactive) | > 6.31 µM (inactive) | > 6.31 µM (inactive) | > 6.31 µM (inactive) | > 3.98 µM (inactive) | > 1.58 µM (inactive) | 0.794 µM (active) | > 5.01 µM (inactive) | > 7.94 µM (inactive) | > 7.94 µM (inactive) | > 6.31 µM (inactive) | > 10 µM (inactive) | > 2 µM (inactive) | > 7.94 µM (inactive) | > 5.01 µM (inactive) | – |
| CCc1ccc(S(=O)(=O)/N=C2\C=C(NS(=O)(=O)c3ccccc3)C(=O)c3ccccc32)cc1 | – | – | – | – | – | – | – | – | – | – | – | – | – | – | – | – | – | 13.3 µM (active) |
